What was measured:
SLCO2A1 S346A mutant = SLCO2A1 S346A mutant (Homo sapiens, UniProt Q92959, S346A); type: cell-based
SLCO2A1 W565F mutant = SLCO2A1 W565F mutant (Homo sapiens, UniProt Q92959, W565F); assay: 6-CF uptake assay, HEK293F cells expressing SLCO2A1 W565F; type: cell-based; conditions: 50 μM 6-CF
SLCO2A1 C143A mutant = SLCO2A1 C143A mutant (Homo sapiens, UniProt Q92959, C143A); assay: 6-CF uptake assay, HEK293F cells expressing SLCO2A1 C143A; type: cell-based; conditions: C143A mutant vs WT
SLCO2A1 C448A mutant = SLCO2A1 C448A mutant (Homo sapiens, UniProt Q92959, C448A); assay: 6-CF uptake assay, HEK293F cells expressing SLCO2A1 C448A; type: cell-based; conditions: C448A mutant vs WT
SLCO2A1 Y90A mutant = SLCO2A1 Y90A mutant (Homo sapiens, UniProt Q92959, Y90A); assay: 6-CF uptake assay, HEK293F cells expressing SLCO2A1 Y90A; type: cell-based; conditions: 50 μM 6-CF
SLCO2A1 C420F mutant = SLCO2A1 C420F mutant (Homo sapiens, UniProt Q92959, C420F); assay: 6-CF uptake assay, HEK293F cells expressing SLCO2A1 C420F; type: cell-based; conditions: C420F mutant vs WT
SLCO2A1 R445C mutant = SLCO2A1 R445C mutant (Homo sapiens, UniProt Q92959, R445C); assay: 6-CF uptake assay, HEK293F cells expressing SLCO2A1 R445C; type: cell-based; conditions: 50 μM 6-CF
SLCO2A1 E465K mutant = SLCO2A1 E465K mutant (Homo sapiens, UniProt Q92959, E465K); assay: 6-CF uptake assay, HEK293F cells expressing SLCO2A1 E465K; type: cell-based; conditions: E465K mutant vs WT
SLCO2A1 [1] = conditions: read-out: Km for 6-CF reported in a previous study; cited from earlier work
SLCO2A1 [2] = conditions: read-out: IC50 in competitively inhibiting radioactive PGE2; pH 7.4; cited from earlier work
human SLCO2A1 = human SLCO2A1 (Homo sapiens, UniProt Q92959); assay: 6-CF uptake assay in HEK293F cells expressing SLCO2A1 WT

| increase in 6-CF uptake activity (SLCO2A1 S346A mutant) [fold] | 6-CF uptake (percentage of SLCO2A1-WT) (SLCO2A1 W565F mutant) [%] | reduction of the 6-CF uptake activity (SLCO2A1 C143A mutant) | reduction of the 6-CF uptake activity (SLCO2A1 C448A mutant) [%] | 6-CF uptake (percentage of SLCO2A1-WT) (SLCO2A1 Y90A mutant) [%] | decrease of 6-CF uptake activity (SLCO2A1 C420F mutant) | 6-CF uptake (percentage of SLCO2A1-WT) (SLCO2A1 R445C mutant) [%] | decrease of 6-CF uptake activity (SLCO2A1 E465K mutant) | IC50 (human SLCO2A1) [µM] | IC50 (6-CF uptake) relative to IC50 (radioactive PGE2, pH 7.4) (human SLCO2A1; IC50 2.21 μM vs 0.17 μM) [fold] | Compound | Km (SLCO2A1 [1]) [µM] | IC50 (SLCO2A1 [2]) [µM] |
| --- | --- | --- | --- | --- | --- | --- | --- | --- | --- | --- | --- | --- |
| 1.5 | ~50 | approximately 80% | ~55 | 60 | more than 80% | 60 | more than 80% | – | – | 6-Carboxyfluorescein [6-CF] | 270 ± 40.7 | – |
| – | – | – | – | – | – | – | – | 2.21 ± 0.37 | 13 | Cc1ccc(C(=O)Nc2ccc(S(=O)(=O)O)c3cc(S(=O)(=O)O)cc(S(=O)(=O)O)c23)cc1NC(=O)c1cccc(NC(=O)Nc2cccc(C(=O)Nc3cc(C(=O)Nc4ccc(S(=O)(=O)O)c5cc(S(=O)(=O)O)cc(S(=O)(=O)O)c45)ccc3C)c2)c1 [suramin] | – | 0.17 |
